Here are results for seven compounds from BindingDB's records for doi:10.1021/jm000506s (The R. W. Johnson Pharmaceutical Research Institute, 2001).

By IC50 is commonly meant the concentration that gives 50% inhibition. A higher IC50 goes with a need for much substance.

This test is described as follows: In vitro antagonist activity against Thrombin induced gel-filtered platelet (GFP) aggregation at 0.15 nM.
Consider `COc1ccc(C[C@H](NC(=O)Nc2ccc3c(CN4CCCC4)cn(Cc4ccc(F)cc4)c3c2)C(=O)N[C@@H](CCCNC(=N)N)C(=O)NCc2ccccc2)cc1` [2-[2-{3-[1-(4-Fluoro-benzyl)-3-pyrrolidin-1-ylmethyl-1H-indol-6-yl]-ureido}-3-(4-methoxy-phenyl)-propionylamino]-5-guanidino-pentanoic acid benzylamide], for which the IC50 stood at 2320 nM. That is a single-digit micromolar value.

Take `COc1ccc(C[C@H](NC(=O)Nc2ccc3c(CN4CCCC4)cn(Cc4ccc(OC(F)(F)F)cc4)c3c2)C(=O)N[C@@H](CCCNC(=N)N)C(=O)NCc2ccccc2)cc1` [5-Guanidino-2-(3-(4-methoxy-phenyl)-2-{3-[3-pyrrolidin-1-ylmethyl-1-(4-trifluoromethoxy-benzyl)-1H-indol-6-yl]-ureido}-propionylamino)-pentanoic acid benzylamide]: the midpoint of inhibition, the IC50, lay at 18200 nM. This IC50 is about 7.8-fold higher than that of the compound before.

Compound `COc1ccc(C[C@H](NC(=O)Nc2ccc3c(CN4CCCC4)cn(Cc4c(Cl)cccc4Cl)c3c2)C(=O)N[C@@H](CCCN=C(N)N)C(=O)NCc2ccccc2)cc1` [RWJ-54003] had an IC50 of 900 nM.

Regarding `N=C(N)NCCC[C@H](NC(=O)[C@H](Cc1ccc(F)c(F)c1)NC(=O)Nc1ccc2c(CN3CCCC3)cn(Cc3c(Cl)cccc3Cl)c2c1)C(=O)NCc1ccccc1` [(S)-2-[(S)-2-{3-[1-(2,6-Dichloro-benzyl)-3-pyrrolidin-1-ylmethyl-1H-indol-6-yl]-ureido}-3-(3,4-difluoro-phenyl)-propionylamino]-5-guanidino-pentanoic acid benzylamide], the IC50 stood at 570 nM.

Consider `NCC[C@H](NC(=O)[C@H](Cc1ccc(F)c(F)c1)NC(=O)Nc1ccc2c(CN3CCCC3)nn(Cc3c(Cl)cccc3Cl)c2c1)C(=O)NCc1ccccc1` [4-Amino-N-benzyl-2-[2-{3-[1-(2,6-dichloro-benzyl)-3-pyrrolidin-1-ylmethyl-1H-indazol-6-yl]-ureido}-3-(3,4-difluoro-phenyl)-propionylamino]-butyramide], for which half-maximal inhibition (IC50) was put at 370 nM.

`N=C(N)NCCC[C@H](NC(=O)[C@H](Cc1ccc(F)c(F)c1)NC(=O)Nc1ccc2c(CN3CCCC3)cn(Cc3c(Cl)cccc3Cl)c2c1)C(=O)NCc1ccncc1` [2-[2-{3-[1-(2,6-Dichloro-benzyl)-3-pyrrolidin-1-ylmethyl-1H-indol-6-yl]-ureido}-3-(3,4-difluoro-phenyl)-propionylamino]-5-guanidino-pentanoic acid (pyridin-4-ylmethyl)-amide] returned an IC50 of 1060 nM.

On to `COc1ccc(C[C@H](NC(=O)Nc2ccc3c(CNC4CCCC4)cn(Cc4ccc(F)cc4)c3c2)C(=O)N[C@@H](CCCNC(=N)N)C(=O)NCc2ccccc2)cc1` [2-[2-{3-[3-Cyclopentylaminomethyl-1-(4-fluoro-benzyl)-1H-indol-6-yl]-ureido}-3-(4-methoxy-phenyl)-propionylamino]-5-guanidino-pentanoic acid benzylamide], for which the IC50 is 17800 nM.
